# From ChEMBL document CHEMBL2010728, “Bicyclic benzofuran and indole-based salicylic acids as protein tyrosine phosphatase inhibitors” (Bioorg Med Chem, 2012)
# What was measured:
# [1] = biological target: Tyrosine-protein phosphatase YopH (Yersinia pseudotuberculosis serotype I (strain IP32953), UniProt P08538); assay: Inhibition of Yersinia pseudotuberculosis YopH
# [2] = biological target: T1, Tyrosine-protein phosphatase non-receptor type 1 (Homo sapiens, UniProt P18031); assay: Inhibition of PTP1B expressed in Escherichia coli BL21 (DE3) cells using p-nitrophenyl phosphate as substrate after 2 to 3 mins by spectrophotometric analysis
# T1 sequence (P18031 whole entry): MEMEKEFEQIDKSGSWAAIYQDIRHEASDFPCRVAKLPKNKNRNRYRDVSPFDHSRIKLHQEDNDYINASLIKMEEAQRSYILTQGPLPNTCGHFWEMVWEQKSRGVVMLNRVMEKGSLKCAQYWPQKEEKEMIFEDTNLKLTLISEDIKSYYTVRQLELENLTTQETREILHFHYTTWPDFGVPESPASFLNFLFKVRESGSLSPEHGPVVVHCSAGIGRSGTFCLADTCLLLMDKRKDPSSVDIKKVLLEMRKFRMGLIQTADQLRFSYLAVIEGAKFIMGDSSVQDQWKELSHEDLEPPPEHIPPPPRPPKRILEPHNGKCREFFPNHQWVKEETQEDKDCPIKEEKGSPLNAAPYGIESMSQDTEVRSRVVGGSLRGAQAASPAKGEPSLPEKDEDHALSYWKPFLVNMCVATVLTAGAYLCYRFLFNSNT
# [3] = biological target: T2, Tyrosine-protein phosphatase non-receptor type 1 (Homo sapiens) (UniProt P18031); assay: Ratio of Ki for salicylic acid to compound Ki for PTP1B
# T2 sequence (whole entry): T1 sequence (P18031 whole entry)
# Homo sapiens = species on record: Homo sapiens; assay: Selectivity ratio of Ki for human recombinant TC-PTP to Ki for PTP1B
# [4] = Selectivity ratio of Ki for PTP to Ki for PTP1B
# Sequence of Tyrosine-protein phosphatase YopH (P08538 whole entry): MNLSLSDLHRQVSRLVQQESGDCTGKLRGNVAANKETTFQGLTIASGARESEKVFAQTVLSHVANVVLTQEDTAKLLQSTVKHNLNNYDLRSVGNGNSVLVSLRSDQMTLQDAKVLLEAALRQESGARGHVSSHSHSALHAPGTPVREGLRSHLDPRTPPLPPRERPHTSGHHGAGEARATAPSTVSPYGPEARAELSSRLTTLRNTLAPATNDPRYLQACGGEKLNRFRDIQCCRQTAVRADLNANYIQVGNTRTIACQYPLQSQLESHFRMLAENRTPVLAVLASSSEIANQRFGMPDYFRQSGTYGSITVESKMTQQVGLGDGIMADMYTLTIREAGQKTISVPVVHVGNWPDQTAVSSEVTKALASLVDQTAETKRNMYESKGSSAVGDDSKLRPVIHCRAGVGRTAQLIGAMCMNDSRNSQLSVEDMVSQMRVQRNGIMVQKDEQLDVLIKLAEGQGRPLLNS
Structure (SMILES),IC50 [1] [µM],Ki [2] [µM],also measured
O=C(O)c1cc2cc(O)ccc2cc1O,60,–,–
O=C(O)c1cc2cccc(O)c2cc1O,18,–,–
O=C(O)c1cc(NCn2c(=S)[nH]c3ccccc32)ccc1O,–,61,–
O=C(O)c1cc(NCn2c(S)nc3ccccc32)ccc1O,–,–,Ratio Ki [3]: 320
N[C@@H](Cc1ccc(C(F)(F)P(=O)(O)O)cc1)C(=O)O [PHOSPHONODIFLUOROMETHYL PHENYLALANINE],–,0.0024,Ratio (Homo sapiens): 10; Ratio Ki [4]: 1000
O=C(O)c1ccccc1O [SALICYLIC ACID],–,19400,Ki [1]: 1 mM
